The kinase profiling compilation of Christmann-Franck et al. (2016)
Where “and” joins values, the source holds several entries; their conditions need not be identical. Identical values can stand only once.

Assays:
Experiment in all cases: radiometric filter-binding kinase assay, Kinase HotSpot
[1] = target: JAK1 JH1 catalytic (human) (UniProt P23458); settings: compound 0.5 µM; ATP 10 µM
CHEK1 (human) = CHEK1 (human) (UniProt O14757); settings: compound 0.5 µM; ATP 10 µM
PDPK1 (human) = PDPK1 (human) (UniProt O15530); settings: compound 0.5 µM; ATP 10 µM
STK38 (human) = STK38 (human) (UniProt Q15208); settings: compound 0.5 µM; ATP 10 µM
CAMK2B (human) = CAMK2B (human) (UniProt Q13554); settings: compound 0.5 µM; ATP 10 µM
CDK3 CCNE1 (human) = CDK3 CCNE1 (human) (UniProt Q00526+P24864); settings: compound 0.5 µM
PHKG2 (human) = PHKG2 (human) (UniProt P15735); settings: compound 0.5 µM; ATP 10 µM
CLK4 (human) = CLK4 (human) (UniProt Q9HAZ1); settings: compound 0.5 µM; ATP 10 µM
YES1 (human) = YES1 (human) (UniProt P07947); settings: compound 0.5 µM; ATP 10 µM
ULK3 (human) = ULK3 (human) (UniProt Q6PHR2); settings: compound 0.5 µM; ATP 10 µM
CSNK1A1 (human) = CSNK1A1 (human) (UniProt P48729); settings: compound 0.5 µM; ATP 10 µM
EPHB2 (human) = EPHB2 (human) (UniProt P29323); settings: compound 0.5 µM; ATP 10 µM
KIT (human) = KIT (human) (UniProt P10721); settings: compound 0.5 µM; ATP 10 µM
RET (human) = RET (human) (UniProt P07949); settings: compound 0.5 µM; ATP 10 µM
STK16 (human) = STK16 (human) (UniProt O75716); settings: compound 0.5 µM; ATP 10 µM
BRAF (human) = BRAF (human) (UniProt P15056); settings: compound 0.5 µM; ATP 10 µM
PRKG1 (human) = PRKG1 (human) (UniProt Q13976); settings: compound 0.5 µM; ATP 10 µM
TGFBR2 (human) = TGFBR2 (human) (UniProt P37173); settings: compound 0.5 µM; ATP 10 µM
KDR (human) = KDR (human) (UniProt P35968); settings: compound 0.5 µM; ATP 10 µM
[2] = target: TYK2 JH1 catalytic (human) (UniProt P29597); settings: compound 0.5 µM; ATP 10 µM
DYRK1A (human) = DYRK1A (human) (UniProt Q13627); settings: compound 0.5 µM; ATP 10 µM
EGFR (human) = EGFR (human) (UniProt P00533); settings: compound 0.5 µM; ATP 10 µM
MARK1 (human) = MARK1 (human) (UniProt Q9P0L2); settings: compound 0.5 µM; ATP 10 µM
PRKD3 (human) = PRKD3 (human) (UniProt O94806); settings: compound 0.5 µM; ATP 10 µM
PRKCA (human) = PRKCA (human) (UniProt P17252); settings: compound 0.5 µM; ATP 10 µM
TAOK2 (human) = TAOK2 (human) (UniProt Q9UL54); settings: compound 0.5 µM; ATP 10 µM
MAPK14 (human) = MAPK14 (human) (UniProt Q16539); settings: compound 0.5 µM; ATP 10 µM
MAPKAPK5 (human) = MAPKAPK5 (human) (UniProt Q8IW41); settings: compound 0.5 µM; ATP 10 µM
DYRK3 (human) = DYRK3 (human) (UniProt O43781); settings: compound 0.5 µM; ATP 10 µM
PAK6 (human) = PAK6 (human) (UniProt Q9NQU5); settings: compound 0.5 µM; ATP 10 µM
[3] = tested on: SGK1 (human), O00141 [S422D]; settings: compound 0.5 µM; ATP 10 µM
MKNK2 (human) = MKNK2 (human) (UniProt Q9HBH9); settings: compound 0.5 µM; ATP 10 µM
LCK (human) = LCK (human) (UniProt P06239); settings: compound 0.5 µM; ATP 10 µM
RPS6KB1 (human) = RPS6KB1 (human) (UniProt P23443); settings: compound 0.5 µM; ATP 10 µM
RPS6KB2 (human) = RPS6KB2 (human) (UniProt Q9UBS0); settings: compound 0.5 µM; ATP 10 µM
PTK2 (human) = PTK2 (human) (UniProt Q05397); settings: compound 0.5 µM; ATP 10 µM
CSNK2A1 (human) = CSNK2A1 (human) (UniProt P68400); settings: compound 0.5 µM; ATP 10 µM
Chain of CSNK2A1 (human) (P68400 whole entry, looked up): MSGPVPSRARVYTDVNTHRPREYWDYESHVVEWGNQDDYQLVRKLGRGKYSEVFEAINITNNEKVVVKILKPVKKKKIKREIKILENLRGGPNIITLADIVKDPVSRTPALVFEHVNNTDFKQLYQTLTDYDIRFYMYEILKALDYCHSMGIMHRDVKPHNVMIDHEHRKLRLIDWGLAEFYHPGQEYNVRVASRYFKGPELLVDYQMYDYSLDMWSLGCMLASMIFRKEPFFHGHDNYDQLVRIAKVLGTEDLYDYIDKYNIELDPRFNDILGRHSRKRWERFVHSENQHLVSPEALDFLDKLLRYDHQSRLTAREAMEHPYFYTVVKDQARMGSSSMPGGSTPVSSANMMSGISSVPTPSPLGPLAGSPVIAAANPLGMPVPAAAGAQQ

Chain of PDPK1 (human) (O15530 whole entry, looked up): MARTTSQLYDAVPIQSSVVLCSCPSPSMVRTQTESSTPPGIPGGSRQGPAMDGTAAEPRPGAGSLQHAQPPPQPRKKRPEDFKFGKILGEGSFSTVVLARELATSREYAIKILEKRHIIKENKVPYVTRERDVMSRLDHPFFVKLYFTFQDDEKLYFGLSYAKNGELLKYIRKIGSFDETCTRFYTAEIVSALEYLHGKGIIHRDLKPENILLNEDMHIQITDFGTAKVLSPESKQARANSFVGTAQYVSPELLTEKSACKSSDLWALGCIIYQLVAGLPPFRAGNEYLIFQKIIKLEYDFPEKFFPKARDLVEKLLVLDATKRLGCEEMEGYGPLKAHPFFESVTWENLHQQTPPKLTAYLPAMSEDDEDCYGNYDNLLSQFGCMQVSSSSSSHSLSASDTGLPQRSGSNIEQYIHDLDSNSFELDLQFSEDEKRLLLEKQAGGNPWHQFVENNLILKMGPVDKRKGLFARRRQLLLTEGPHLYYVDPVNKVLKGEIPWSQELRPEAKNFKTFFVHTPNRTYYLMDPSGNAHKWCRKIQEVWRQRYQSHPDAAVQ
Chain of MARK1 (human) (Q9P0L2 whole entry, looked up): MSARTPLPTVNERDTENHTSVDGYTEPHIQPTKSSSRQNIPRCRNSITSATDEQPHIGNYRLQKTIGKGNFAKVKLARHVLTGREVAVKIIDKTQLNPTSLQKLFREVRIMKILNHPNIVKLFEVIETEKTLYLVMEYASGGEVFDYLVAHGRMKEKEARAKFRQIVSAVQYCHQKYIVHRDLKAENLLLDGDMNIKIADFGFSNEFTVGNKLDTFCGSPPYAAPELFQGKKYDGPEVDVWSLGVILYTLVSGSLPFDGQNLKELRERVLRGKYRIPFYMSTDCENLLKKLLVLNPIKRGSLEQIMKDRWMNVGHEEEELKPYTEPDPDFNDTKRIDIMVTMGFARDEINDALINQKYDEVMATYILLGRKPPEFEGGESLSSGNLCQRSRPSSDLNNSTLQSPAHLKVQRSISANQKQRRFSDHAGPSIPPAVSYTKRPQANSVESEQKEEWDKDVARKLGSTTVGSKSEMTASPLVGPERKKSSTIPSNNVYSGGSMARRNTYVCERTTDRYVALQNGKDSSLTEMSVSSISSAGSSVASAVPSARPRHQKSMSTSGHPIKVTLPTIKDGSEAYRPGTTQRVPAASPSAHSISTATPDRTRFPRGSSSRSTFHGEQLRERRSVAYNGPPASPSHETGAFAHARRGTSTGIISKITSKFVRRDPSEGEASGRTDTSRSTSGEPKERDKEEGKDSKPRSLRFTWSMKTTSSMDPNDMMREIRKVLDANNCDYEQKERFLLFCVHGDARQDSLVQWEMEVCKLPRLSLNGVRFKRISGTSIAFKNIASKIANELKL
Chain of RET (human) (P07949 whole entry, looked up): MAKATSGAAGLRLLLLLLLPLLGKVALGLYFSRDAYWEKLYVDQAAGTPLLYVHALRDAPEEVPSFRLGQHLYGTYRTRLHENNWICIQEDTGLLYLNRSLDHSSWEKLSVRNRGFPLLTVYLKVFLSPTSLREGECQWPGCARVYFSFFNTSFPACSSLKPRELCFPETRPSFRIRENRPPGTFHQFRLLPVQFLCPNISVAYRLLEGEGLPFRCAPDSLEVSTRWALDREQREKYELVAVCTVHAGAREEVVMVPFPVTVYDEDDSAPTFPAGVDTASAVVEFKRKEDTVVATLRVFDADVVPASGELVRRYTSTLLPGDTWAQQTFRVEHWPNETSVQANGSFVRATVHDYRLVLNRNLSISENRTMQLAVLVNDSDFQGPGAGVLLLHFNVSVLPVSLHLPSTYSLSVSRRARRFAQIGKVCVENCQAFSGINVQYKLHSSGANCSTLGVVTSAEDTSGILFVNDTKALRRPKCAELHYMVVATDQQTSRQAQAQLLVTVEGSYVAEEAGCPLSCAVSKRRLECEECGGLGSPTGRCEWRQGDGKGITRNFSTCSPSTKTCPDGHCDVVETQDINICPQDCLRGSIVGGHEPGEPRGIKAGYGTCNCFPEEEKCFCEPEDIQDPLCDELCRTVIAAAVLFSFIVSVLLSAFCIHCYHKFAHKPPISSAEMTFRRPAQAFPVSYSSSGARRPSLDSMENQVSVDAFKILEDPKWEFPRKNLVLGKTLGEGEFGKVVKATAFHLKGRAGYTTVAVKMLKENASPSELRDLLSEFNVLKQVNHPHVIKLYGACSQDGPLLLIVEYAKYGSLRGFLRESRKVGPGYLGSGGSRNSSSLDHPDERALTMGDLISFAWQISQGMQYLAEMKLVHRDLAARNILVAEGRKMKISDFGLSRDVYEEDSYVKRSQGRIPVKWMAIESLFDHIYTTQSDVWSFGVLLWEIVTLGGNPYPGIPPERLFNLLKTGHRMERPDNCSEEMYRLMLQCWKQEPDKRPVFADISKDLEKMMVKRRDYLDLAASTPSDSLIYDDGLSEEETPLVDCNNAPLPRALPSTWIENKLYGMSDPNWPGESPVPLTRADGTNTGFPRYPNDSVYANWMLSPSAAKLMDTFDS
Chain of PRKG1 (human) (Q13976 whole entry, looked up): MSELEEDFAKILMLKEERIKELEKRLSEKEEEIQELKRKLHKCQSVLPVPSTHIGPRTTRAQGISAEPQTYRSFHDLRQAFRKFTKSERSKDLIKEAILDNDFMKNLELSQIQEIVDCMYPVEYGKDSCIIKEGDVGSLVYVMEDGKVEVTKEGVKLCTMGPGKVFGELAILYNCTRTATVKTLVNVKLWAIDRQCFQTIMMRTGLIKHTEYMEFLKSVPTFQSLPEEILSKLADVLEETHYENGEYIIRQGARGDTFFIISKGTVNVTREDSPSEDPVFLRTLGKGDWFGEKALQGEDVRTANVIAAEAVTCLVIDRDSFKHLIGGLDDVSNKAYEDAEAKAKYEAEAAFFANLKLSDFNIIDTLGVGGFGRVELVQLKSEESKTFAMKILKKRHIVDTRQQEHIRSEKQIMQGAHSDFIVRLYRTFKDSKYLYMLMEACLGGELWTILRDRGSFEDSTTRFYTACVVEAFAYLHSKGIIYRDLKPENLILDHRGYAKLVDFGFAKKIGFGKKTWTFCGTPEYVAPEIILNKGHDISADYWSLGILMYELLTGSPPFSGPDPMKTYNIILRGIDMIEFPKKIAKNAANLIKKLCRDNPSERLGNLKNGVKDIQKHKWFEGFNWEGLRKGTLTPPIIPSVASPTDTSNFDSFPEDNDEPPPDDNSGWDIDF
Chain of PRKD3 (human) (O94806 whole entry, looked up): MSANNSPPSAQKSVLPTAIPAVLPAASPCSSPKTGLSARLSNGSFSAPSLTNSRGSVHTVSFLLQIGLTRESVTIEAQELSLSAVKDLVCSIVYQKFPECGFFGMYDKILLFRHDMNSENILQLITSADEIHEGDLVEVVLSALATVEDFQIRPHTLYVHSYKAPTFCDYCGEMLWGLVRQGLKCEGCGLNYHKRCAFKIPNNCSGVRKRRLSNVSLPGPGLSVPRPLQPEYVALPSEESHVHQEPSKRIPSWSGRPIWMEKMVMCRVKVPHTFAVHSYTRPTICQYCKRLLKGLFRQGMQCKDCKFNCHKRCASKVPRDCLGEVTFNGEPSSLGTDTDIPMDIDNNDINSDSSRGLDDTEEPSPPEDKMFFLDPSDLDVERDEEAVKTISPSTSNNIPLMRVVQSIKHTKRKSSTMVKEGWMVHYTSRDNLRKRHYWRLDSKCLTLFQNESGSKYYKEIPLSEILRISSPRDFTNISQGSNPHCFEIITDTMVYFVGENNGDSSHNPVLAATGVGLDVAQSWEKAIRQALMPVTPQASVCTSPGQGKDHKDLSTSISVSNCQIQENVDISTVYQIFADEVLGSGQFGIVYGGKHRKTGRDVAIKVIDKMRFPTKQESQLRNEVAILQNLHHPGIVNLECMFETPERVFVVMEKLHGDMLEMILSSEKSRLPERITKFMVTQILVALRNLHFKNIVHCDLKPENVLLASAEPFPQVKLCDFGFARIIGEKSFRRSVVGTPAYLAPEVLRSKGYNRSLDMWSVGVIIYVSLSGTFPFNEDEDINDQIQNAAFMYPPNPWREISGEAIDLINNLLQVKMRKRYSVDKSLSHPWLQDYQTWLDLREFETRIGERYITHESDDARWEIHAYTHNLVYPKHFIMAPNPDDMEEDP
Chain of MAPK14 (human) (Q16539 whole entry, looked up): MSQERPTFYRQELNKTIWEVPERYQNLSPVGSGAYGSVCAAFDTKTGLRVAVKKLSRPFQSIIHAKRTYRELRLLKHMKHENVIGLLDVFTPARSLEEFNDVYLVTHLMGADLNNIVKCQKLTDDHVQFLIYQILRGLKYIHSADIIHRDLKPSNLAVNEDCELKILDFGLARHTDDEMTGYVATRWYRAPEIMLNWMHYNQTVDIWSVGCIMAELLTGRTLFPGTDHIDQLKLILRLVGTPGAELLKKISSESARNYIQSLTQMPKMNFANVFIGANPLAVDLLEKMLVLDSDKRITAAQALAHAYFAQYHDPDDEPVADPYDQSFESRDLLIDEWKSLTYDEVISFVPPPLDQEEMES

CN[C@@H]1C[C@H]2O[C@@](C)([C@@H]1OC)n1c3ccccc3c3c4c(c5c6ccccc6n2c5c31)C(=O)NC4
residual activity [1]: 2.07%
residual activity (CHEK1 (human)): 1.63%
residual activity (PDPK1 (human)): 4.41%
residual activity (STK38 (human)): 10%
residual activity (CAMK2B (human)): 1.64%
residual activity (CDK3 CCNE1 (human); ATP 10 µM): 8.24%
residual activity (PHKG2 (human)): 3.42%
residual activity (CLK4 (human)): 6.62%
residual activity (YES1 (human)): 4.48%
residual activity (ULK3 (human)): 1.82%

Cc1cc(Nc2nc(-c3ccccc3)nc3ccccc23)n[nH]1
residual activity (CSNK1A1 (human)): 94.6%
residual activity [1]: 83.7%
residual activity (CHEK1 (human)): 69.1%
residual activity (EPHB2 (human)): 76.7%
residual activity (KIT (human)): 40.8%
residual activity (RET (human)): 8.76%
residual activity (STK16 (human)): 24.7%
residual activity (BRAF (human)): 99.5%
residual activity (PRKG1 (human)): 94.9% and 97.3%
residual activity (PDPK1 (human)): 90.3%
residual activity (TGFBR2 (human)): 116%
residual activity (KDR (human)): 36.5%
residual activity [2]: 34.3%
residual activity (DYRK1A (human)): 104%
residual activity (EGFR (human)): 97.4%
residual activity (MARK1 (human)): 93.7%
residual activity (CAMK2B (human)): 97.7%
residual activity (PRKD3 (human)): 93.9%
residual activity (CDK3 CCNE1 (human); ATP 10 µM): 85%
residual activity (PHKG2 (human)): 86.3%
residual activity (PRKCA (human)): 92.2%
residual activity (TAOK2 (human)): 90.3%
residual activity (MAPK14 (human)): 103%
residual activity (MAPKAPK5 (human)): 93.2%
residual activity (DYRK3 (human)): 81.9%
residual activity (PAK6 (human)): 78.9%
residual activity (CLK4 (human)): 34.3%
residual activity [3]: 95.5%
residual activity (MKNK2 (human)): 71.8%
residual activity (YES1 (human)): 20.4%
residual activity (LCK (human)): 75.6%
residual activity (RPS6KB1 (human)): 60.4%
residual activity (RPS6KB2 (human)): 99.7%
residual activity (PTK2 (human)): 59.9%
residual activity (CSNK2A1 (human)): 27%

O=c1[nH]c2ccccc2n1C1CCN(Cc2ccc(-c3nc4cc5[nH]cnc5cc4nc3-c3ccccc3)cc2)CC1
residual activity (CSNK1A1 (human)): 96%
residual activity [1]: 94.6%
residual activity (CHEK1 (human)): 107%
residual activity (EPHB2 (human)): 108%
residual activity (KIT (human)): 91.7%
residual activity (RET (human)): 96.7%
residual activity (STK16 (human)): 99.5%
residual activity (BRAF (human)): 101%
residual activity (PRKG1 (human)): 101% and 103%
residual activity (PDPK1 (human)): 107%
residual activity (TGFBR2 (human)): 95.5%
residual activity (KDR (human)): 90.9%
residual activity [2]: 101%
residual activity (DYRK1A (human)): 101%
residual activity (EGFR (human)): 99.8%
residual activity (MARK1 (human)): 104%
residual activity (CAMK2B (human)): 104%
residual activity (PRKD3 (human)): 99.5%
residual activity (CDK3 CCNE1 (human)): 97.5%
residual activity (PHKG2 (human)): 104%
residual activity (PRKCA (human)): 84.3%
residual activity (TAOK2 (human)): 98.8%
residual activity (MAPK14 (human)): 99.7%
residual activity (MAPKAPK5 (human)): 97.4%
residual activity (DYRK3 (human)): 101%
residual activity (PAK6 (human)): 109%
residual activity (CLK4 (human)): 92.8%
residual activity [3]: 102%
residual activity (MKNK2 (human)): 98.7%
residual activity (YES1 (human)): 90.8%
residual activity (LCK (human)): 98.2%
residual activity (RPS6KB1 (human)): 101%
residual activity (RPS6KB2 (human)): 102%
residual activity (PTK2 (human)): 108%
residual activity (CSNK2A1 (human)): 94.3%

CCOc1cc2ncnc(Nc3cccc(Br)c3)c2cc1OCC
residual activity (CSNK1A1 (human)): 98.6%
residual activity [1]: 102%
residual activity (CHEK1 (human)): 115%
residual activity (EPHB2 (human)): 77%
residual activity (KIT (human)): 74.4%
residual activity (RET (human)): 39.3%
residual activity (STK16 (human)): 98.4%
residual activity (BRAF (human)): 97.1%
residual activity (PRKG1 (human)): 96% and 96.7%
residual activity (PDPK1 (human)): 96.8%
residual activity (TGFBR2 (human)): 83.4%
residual activity (KDR (human)): 92%
residual activity [2]: 107%
residual activity (DYRK1A (human)): 98.7%
residual activity (EGFR (human)): 2.02%
residual activity (MARK1 (human)): 90.3%
residual activity (CAMK2B (human)): 98.8%
residual activity (PRKD3 (human)): 95.4%
residual activity (CDK3 CCNE1 (human); ATP 10 µM): 95.2%
residual activity (PHKG2 (human)): 101%
residual activity (PRKCA (human)): 85.3%
residual activity (TAOK2 (human)): 101%
residual activity (MAPK14 (human)): 87.5%
residual activity (MAPKAPK5 (human)): 71.6%
residual activity (DYRK3 (human)): 98.5%
residual activity (PAK6 (human)): 119%
residual activity (CLK4 (human)): 83.1%
residual activity [3]: 120%
residual activity (MKNK2 (human)): 34.3%
residual activity (YES1 (human)): 43.2%
residual activity (LCK (human)): 52.9%
residual activity (RPS6KB1 (human)): 95.8%
residual activity (RPS6KB2 (human)): 102%
residual activity (PTK2 (human)): 101%
residual activity (CSNK2A1 (human)): 95.9%

N#CCCc1ccc2c(c1)-c1[nH]c3ccc([N+](=O)[O-])cc3c1CC(=O)N2
residual activity (CSNK1A1 (human)): 95.1%
residual activity [1]: 91.9%
residual activity (CHEK1 (human)): 45.1%
residual activity (EPHB2 (human)): 98.5%
residual activity (KIT (human)): 76.6%
residual activity (RET (human)): 80.8%
residual activity (STK16 (human)): 87%
residual activity (BRAF (human)): 99.3%
residual activity (PRKG1 (human)): 88.4% and 99.3%
residual activity (PDPK1 (human)): 79.8%
residual activity (TGFBR2 (human)): 10.1%
residual activity (KDR (human)): 75.5%
residual activity [2]: 48.1%
residual activity (DYRK1A (human)): 85.9%
residual activity (EGFR (human)): 94.4%
residual activity (MARK1 (human)): 67.4%
residual activity (CAMK2B (human)): 99.3%
residual activity (PRKD3 (human)): 84%
residual activity (CDK3 CCNE1 (human); ATP 10 µM): 39.7%
residual activity (PHKG2 (human)): 99.1%
residual activity (PRKCA (human)): 80.9%
residual activity (TAOK2 (human)): 86.4%
residual activity (MAPK14 (human)): 91.8%
residual activity (MAPKAPK5 (human)): 94.3%
residual activity (DYRK3 (human)): 97.6%
residual activity (PAK6 (human)): 104%
residual activity (CLK4 (human)): 77.1%
residual activity [3]: 87.9%
residual activity (MKNK2 (human)): 87.7%
residual activity (YES1 (human)): 35.8%
residual activity (LCK (human)): 78.2%
residual activity (RPS6KB1 (human)): 98%
residual activity (RPS6KB2 (human)): 96.1%
residual activity (PTK2 (human)): 82.2%
residual activity (CSNK2A1 (human)): 91.2%
